Results on 16 compounds are retold here after patent publication US20110190309A1, “PHARMACEUTICAL PRODUCT COMPRISING A […] RECEPTOR ANTAGONIST AND A Beta2-ADRENOCEPTOR AGONIST” (priority 2008, published 2011).

The target in series [1] is T1, human muscarinic receptors (M3) (Homo sapiens, UniProt P20309).
T1 construct: purchased
The series is described as follows: Muscarinic Receptor Radioligand Binding Assay ([3H]-NMS). The note with it: human M3 membranes. How it is done:
The inhibitory effects of compounds of the muscarinic antagonists were determined by a Muscarinic Receptor Radioligand Binding Assay. Radioligand binding studies utilising [^3H]-N-methyl scopolamine ([^3H]-NMS) and commercially available cell membranes expressing the human muscarinic receptors (M2 or M3) were used to assess the affinity of muscarinic antagonists for M2 and M3 receptors. Membranes in TRIS buffer were incubated in 96-well plates with [^3H]-NMS and M3 antagonist at various concentrations for 3 hours. Membranes and bound radioligand were then harvested by filtration and allowed to dry overnight. Scintillation fluid was then added and the bound radioligand counted using a Can berra Packard Topcount scintillation counter

Series [2] in a line: Gravimetric Vapour Sorption (GVS). Type of series: physicochemical. Particulars: at 80% RH. The protocol: Gravimetric Vapour Sorption (GVS) profiles were measured using a Surface Measurements Systems Dynamic Vapour Sorption DVS-1, or DVS Advantage GVS instruments. The solid sample ca. 1-5 mg was placed into a glass or wire mesh vessel and the weight of the sample was recorded during a dual cycle step method (40 to 90 to 0 to 90 to 0% relative humidity (RH), in steps of 10% RH).

For the next series, the system named is guinea pig trachea. The series is described as follows: Bronchodilator activity in the guinea pig isolated tracheal ring preparation. The note with it: methacholine 1 μM, 60 min, mean±s.e.mean. The protocol: Guinea pigs (300-500 g) were killed by cervical dislocation and the trachea was isolated. The trachea was cut into segments 2-3 cartilage rings in width and suspended in 10 ml organ baths in modified Krebs' solution (mM; NaCl, 90; NaHCO3, 45; KCl, 5; MgSO4.7H2O, 0.5; Na2HPO4.2H2O, 1; CaCl2, 2.25; glucose, 10; pH 7.4 gassed with 5% CO2, 95% O2 at 37° C.). The tracheal rings were attached to an isometric force transducer for the measurement of isometric tension. The tissues were washed and a force of 1 g was applied to each tissue. The rings were contracted with methacholine (1 μM). Once the contraction had reached a plateau, vehicle (0.01% DMSO in distilled H2O), indacaterol (10 nM), N-[2-(Diethylamino)ethyl]-N-(2-{[2-(4-hydroxy-2-oxo-2,3-dihydro-1,3-benzothiazol-7-yl)ethyl]amino}ethyl)-3-[2-(1-naphthyl)ethoxy]propanamide dihydrobromide (10 nM), N-Cyclohexyl-N^3-[2-(3-fluorophenyl)ethyl]-N-(2-{[2-(4-hydroxy-2-oxo-2,3-dihydro-1,3-benzothiazol-7-yl)ethyl]amino}ethyl)-(3-alaninamide di-D-mandelate salt (1 nM), (R)-3-(1-Phenyl-cycloheptanecarbonyloxy)-1-(pyridin-2-ylcarbamoylmethyl)-1-azonia-bicyclo[2.2.2]octane bromide (1 nM), a combination of (R)-3-(1-Phenyl-cycloheptanecarbonyloxy)-1-(pyridin-2-ylcarbamoylmethyl)-1-azonia-bicyclo[2.2.2]octane bromide (1 nM) and indacaterol (10 nM), a combination of N-[2-(Diethylamino)ethyl]-N-(2-{[2-(4-hydroxy-2-oxo-2,3-dihydro-1,3-benzothiazol-7-yl)ethyl]amino}ethyl)-3-[2-(1-naphthyl)ethoxy]propanamide dihydrobromide (10 nM) and (R)-3-(1-Phenyl-cycloheptanecarbonyloxy)-1-(pyridin-2-ylcarbamoylmethyl)-1-azonia-bicyclo[2.2.2]octane bromide (1 nM) and, or a combination of N-Cyclohexyl-N^3-[2-(3-fluorophenyl)ethyl]-N-(2-{[2-(4-hydroxy-2-oxo-2,3-dihydro-1,3-benzothiazol-7-yl)ethyl]amino}ethyl)-β-alaninamide di-D-mandelate salt (1 nM) and (R)-3-(1-Phenyl-cycloheptanecarbonyloxy)-1-(pyridin-2-ylcarbamoylmethyl)-1-azonia-bicyclo[2.2.2]octane bromide (1 nM) was added and the tissue left for 60 min. The tension was measured in each ring at 60 min following compound addition and was expressed as a % relaxation of the constriction to methacholine (1 μM) (mean±s.e.mean). Data were collected using the Chart 4 software (ADInstruments, Charlgrove, UK).

[3] abbreviates: class symbols of M3 Binding IC50, read-out: M3 pIC50 (converted).

Several values for one entry are separate records, joined by “and”; a condition that tells them apart may be missing. Equal values may be shown once. Read-outs that look alike come from different tables or passages of the source.

T1 sequence (P20309 whole entry): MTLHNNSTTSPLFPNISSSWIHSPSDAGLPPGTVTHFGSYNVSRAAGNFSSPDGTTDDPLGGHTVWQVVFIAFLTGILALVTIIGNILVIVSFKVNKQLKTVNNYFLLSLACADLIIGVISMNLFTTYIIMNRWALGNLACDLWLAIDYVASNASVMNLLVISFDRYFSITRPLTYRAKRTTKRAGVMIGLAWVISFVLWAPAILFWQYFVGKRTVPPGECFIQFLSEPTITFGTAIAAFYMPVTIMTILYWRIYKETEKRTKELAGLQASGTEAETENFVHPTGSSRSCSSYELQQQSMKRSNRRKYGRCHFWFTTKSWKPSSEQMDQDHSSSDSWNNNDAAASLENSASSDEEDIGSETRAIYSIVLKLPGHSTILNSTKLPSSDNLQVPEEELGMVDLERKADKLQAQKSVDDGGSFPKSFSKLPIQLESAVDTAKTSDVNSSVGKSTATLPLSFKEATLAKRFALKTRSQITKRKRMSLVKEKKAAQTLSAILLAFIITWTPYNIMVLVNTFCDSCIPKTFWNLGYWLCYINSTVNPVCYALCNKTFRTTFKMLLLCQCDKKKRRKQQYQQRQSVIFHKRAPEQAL

As for `O=C(C[N+]12CCC(CC1)[C@@H](OC(=O)C1(c3ccccc3)CCCCCC1)C2)Nc1cccnn1` [Example 13, (R)-3-(1-Phenyl-cycloheptanecarbonyloxy)-1-(pyridazin-3-ylcarbamoylmethyl)-1-azonia-bicyclo[2.2.2]octane bromide], the IC50 in series [1] (setting [3]) was under 2 nM.
As for `O=C(C[N+]12CCC(CC1)[C@@H](OC(=O)C1(c3ccccc3)CCCCCC1)C2)Nc1cnccn1` [Example 6, (R)-3-(1-Phenyl-cycloheptanecarbonyloxy)-1-(pyrazin-2-ylcarbamoylmethyl)-1-azonia-bicyclo[2.2.2]octane 2,5-dichloro-benzenesulfonate], the GVS weight increase in series [2] was about 0.2 % w/w.
Regarding `O=C(C[N+]12CCC(CC1)[C@@H](OC(=O)C1(c3ccccc3)CCCCCC1)C2)Nc1ccccn1.[Br-]` [Example 4, (R)-3-(1-Phenyl-cycloheptanecarbonyloxy)-1-(pyridin-2-ylcarbamoylmethyl)-1-azonia-bicyclo[2.2.2]octane bromide], the GVS weight increase entry in series [2] is “negligible”. For the same compound, the “percentage relaxation of the constriction to methacholine” value (shortened to “percentage relaxation”) with guinea pig trachea (1 nM, listed as Compound Z) is 9±9.4%; with guinea pig trachea (1 nM, listed as compound Z), 9±4.3% and 5±1.8%.
In series [2], `O=C(C[N+]12CCC(CC1)[C@@H](OC(=O)C1(c3ccccc3)CCCCCC1)C2)Nc1cnccn1` [Example 5, (R)-3-(1-Phenyl-cycloheptanecarbonyloxy)-1-(pyrazin-2-ylcarbamoylmethyl)-1-azonia-bicyclo[2.2.2]octane 1-hydroxy-naphthalene-2-sulfonate] displayed a GVS weight increase of about 0.3 % w/w.
As for `O=C(C[N+]12CCC(CC1)[C@@H](OC(=O)C1(c3ccccc3)CCCCCC1)C2)Nc1ccc(F)cn1` [Example 10, (R)-1-[(5-Fluoro-pyridin-2-ylcarbamoyl)-methyl]-3-(1-phenyl-cycloheptanecarbonyloxy)-1-azonia-bicyclo[2.2.2]octane chloride], the IC50 in series [1] (setting [3]) is under 2 nM.
Regarding `CCc1cc2c(cc1CC)CC(NC[C@H](O)c1ccc(O)c3[nH]c(=O)ccc13)C2` [indacaterol, reference compound], in the series on guinea pig trachea (10 nM), the “percentage relaxation” value is 24±6.9%.
In series [2], `O=C(C[N+]12CCC(CC1)[C@@H](OC(=O)C1(c3ccccc3)CCCCCC1)C2)Nc1cnccn1` [Example 7, (R)-3-(1-Phenyl-cycloheptanecarbonyloxy)-1-(pyrazin-2-ylcarbamoylmethyl)-1-azonia-bicyclo[2.2.2]octane hemi-naphthalene-1,5-disulfonate] returned a GVS weight increase of 1.6 % w/w.
On to “N-Cyclohexyl-N^3-[2-(3-fluorophenyl)ethyl]-N-(2-{[2-(4-hydroxy-2-oxo-2,3-dihydro-1,3-benzothiazol-7-yl)ethyl]amino}ethyl)-β-alaninamide di-D-mandelate [compound W]”, for which the “percentage relaxation” value in the series on guinea pig trachea (1 nM) came out at 23±10%.
For the compound `O=C(C[N+]12CCC(CC1)[C@@H](OC(=O)C1(c3ccccc3)CCCCCC1)C2)Nc1ccccn1.[Cl-]` [Example 3, (R)-3-(1-Phenyl-cycloheptanecarbonyloxy)-1-(pyridin-2-ylcarbamoylmethyl)-1-azonia-bicyclo[2.2.2]octane chloride], in series [1] (setting [3]), the IC50 was under 2 nM. Moreover, the GVS weight increase result in series [2] was “negligible”.
With `O=C(C[N+]12CCC(CC1)[C@@H](OC(=O)C1(c3ccccc3)CCCCCC1)C2)Nc1cnccn1.[Br-]` [Example 1, (R)-3-(1-Phenyl-cycloheptanecarbonyloxy)-1-(pyrazin-2-ylcarbamoylmethyl)-1-azonia-bicyclo[2.2.2]octane bromide], the IC50 in series [1] (read-out: M3 pIC50 (converted)) was 0.0794 nM. The compound further registered a GVS weight increase in series [2] of 3 % w/w.
In the case of `O=C(C[N+]12CCC(CC1)[C@@H](OC(=O)C1(c3ccccc3)CCCCCC1)C2)Nc1cccnc1` [Example 12, (R)-3-(1-Phenyl-cycloheptanecarbonyloxy)-1-(pyridin-3-ylcarbamoylmethyl)-1-azonia-bicyclo[2.2.2]octane chloride], the IC50 in series [1] (setting [3]) is under 2 nM.
Still for that read-out and setting: the value for `O=C(C[N+]12CCC(CC1)[C@@H](OC(=O)C1(c3cccc(F)c3)CCCCCC1)C2)Nc1ccon1` [Example 9, (R)-3-[1-(3-Fluoro-phenyl)-cycloheptanecarbonyloxy]-1-(isoxazol-3-ylcarbamoylmethyl)-1-azonia-bicyclo[2.2.2]octane bromide] was under 2 nM.
The same measure, in the same setting: the value for `O=C(C[N+]12CCC(CC1)[C@@H](OC(=O)C1(c3cccc(F)c3)CCCCCC1)C2)Nc1cnccn1` [Example 8, (R)-3-[1-(3-Fluoro-phenyl)-cycloheptanecarbonyloxy]-1-(pyrazin-2-ylcarbamoylmethyl)-1-azonia-bicyclo[2.2.2]octane bromide] was under 2 nM.
Consider `O=C(C[N+]12CCC(CC1)[C@@H](OC(=O)C1(c3ccccc3)CCCCCC1)C2)Nc1cnccn1.[Cl-]` [Example 2, (R)-3-(1-Phenyl-cycloheptanecarbonyloxy)-1-(pyrazin-2-ylcarbamoylmethyl)-1-azonia-bicyclo[2.2.2]octane chloride], for which the GVS weight increase in series [2] is recorded as 9 % w/w.
In the case of `Cc1cc(NC(=O)C[N+]23CCC(CC2)[C@@H](OC(=O)C2(c4ccccc4)CCCCCC2)C3)ccn1` [Example 11, (R)-1-[(2-Methyl-pyridin-4-ylcarbamoyl)-methyl]-3-(1-phenyl-cycloheptanecarbonyloxy)-1-azonia-bicyclo[2.2.2]octane chloride], the IC50 in series [1] (setting [3]) was under 2 nM.
`O=C(C[N+]12CCC(CC1)[C@@H](OC(=O)C1(c3ccccc3)CCCCCC1)C2)Nc1ccccn1` [Example 14, (R)-3-(1-Phenyl-cycloheptanecarbonyloxy)-1-(pyridin-2-ylcarbamoylmethyl)-1-azonia-bicyclo[2.2.2]octane hemi-naphthalene-1,5-disulfonate] displayed a GVS weight increase in series [2] of 1 % w/w.
